One may read the IC50 as the midpoint of a concentration-inhibition curve.

In brackets after ≈: the same amount, converted by molar mass.

Consider three compounds from patent EP1948196B1, “USE OF TETRAORGANOSILICON COMPOUNDS” (Salama, Zoser B., priority 2005, dated 2007).

The subject of one data set is Lymphome. Nature of the data set: Effect on lymphomas.
The subject of the next data set is Hepatitis-Viren. Nature of the data set: Antiviral effect. The settings on record: in particular as vesicles holding antisense constructs.
The subject of data set [1] is Kälber-Aortenendothelzellinie BKEz-7. Nature of the data set: tissue or blood. Type of data set: cell-based. An excerpt: Prüfung auf zytotoxisches Potential an Kälber-Aortenendothelzellinie BKEz-7
Als Marker für eine zytotoxische Wirkung wird bei Zellen der charakterisierten Kälber-Aortenendothelzellinie BKEz-7 die Hemmkonzentration ermittelt, bei der eine 50%-ige Hemmung der Zellproliferation erfolgt (im Vergleich zu Kontrollkulturen ohne Zusatz eines Zellinhibitors). Die resultierende Reduzierung der Zellzahl um 50% wird als IC 50 ausgedrückt. Die getesteten Silanverbindungen wurden als Suspensionen auf die Kulturen gegeben und 48 Stunden bei 37°C inkubiert. Zusätzlich erfolgten morphologische Kontrollen und Vitalitätsbestimmungen mittels dem Neutralrot-Test. Mit Ausnahme des Di(dodecanoyloxy)dimethylsilans standen alle Ergebnisse der morphologischen Untersuchungen in guter Übereinstimmung. […]

For another data set, the system named is Maus. Nature of the data set: Pharmacological observation in the mouse (central, vegetative and toxic effects, acute toxicity). Type of data set: in vivo. From the text:
Pharmakologische Untersuchungen an der Maus
Die Verbindungen wurden an der Maus auf zentrale, vegetative und toxische Effekte geprüft. Durch systemische Einzelbeobachtungen sind neben der akuten Toxizität (orienberende letale Dosis, oLD) zentrale und vegetative Wirkungen der Testsubstanzen, insbesondere Effekte auf die Motorik und das Reaktionsvermögen, die Haut- und Rektaltemperatur sowie auf die Pupillenmotorik erfasst worden. Die getesteten Dosierungen betrugen 5 •10^-4, 1 • 10^-3 und 5 • 10^-3 mol/kg Körpergewicht Letale Wirkungen konnten bei keiner der Verbindungen beobachtet werden. Die oLD lag für Di(tetradecanoyloxy)dimethylsilan und Di(octadecanoyloxy)dimethylsilan unter 1 • 10^-3 mol/kg Körpergewicht für alle übrigen Verbindungen unter 5 • 10^-3 mollkg Körpergewicht.

Data set [2] deals with BxPC3 (pankreatisches Adenokarzinom). Nature of the data set: MTT test, triplicate, two-fold dilutions. It is filed as cell-based. Particulars: Homo sapiens, BXPC-3; up to 500 µg/ml; read-out: IC50 BxPC3. Here is the method: (§1) Die Silan wurden in Ethanol aufgelöst und in Zellkulturmedien in Konzentrationen von bis zu 500 µg/ml resuspendiert. Es wurden MTT Tests in dreifacher Ausführung durchgeführt, für welche doppelte Lösungen (7 Schritte) und colo205 (Kofon-Karzinom), BxPC3 (pankreatisches Adenokarzinom) sowie T47D (Brustkrebs) benutzt wurden.
In general terms: Tetrazolium assays rely on reduction of a dye to a coloured formazan, in cell work by metabolically active cells.

The test system of another data set is T47D (Brustkrebs). Nature of the data set: MTT test, triplicate, two-fold dilutions. It is filed as cell-based. Particulars: Homo sapiens, T47D; up to 500 µg/ml; read-out: IC50 T47D. Here is the method: as §1
Another data set concerns colo205 (Kofon-Karzinom). Nature of the data set: MTT test, triplicate, two-fold dilutions. It is filed as cell-based. Particulars: Homo sapiens, COLO 205; up to 500 µg/ml; read-out: IC50 Colo205. Here is the method: as §1
For a further data set, the system named is A431 Epidermalkarzinom. The experiment in a line: MTT assay / EZ4U test, 4 days. It is filed as cell-based. The settings on record: Homo sapiens, A-431; 200 - 12.5 µg/ml, 4 Tage; read-out: IC50 A431. Here is the method:
(§2) Die Silane 1, 5, 9, 10, 11, 13, 15, 16 wurden in Ethanol gelöst und in MTT Assays in einer anfänglichen Konzentration von 200 µg/ml (5 Lösungsschritte 200 - 12.5 µg/ml) verwendet. Die Platten wurde für eine Dauer.von 4 Tagen inkubiert und die Entwicklungsfähigkeit mithilfe des EZ4U Test bestimmt. Die IC50 Werte wurden ausgehend von Dosierungs-Reaktions-Linien berechnet Zelllinien: Colo 205 and HT29 - Kolonkarzinom; BxPC3 and MIAPaCa2 - Pankreaskrebs; CRO2B - karzinoid, A431 Epidermalkarzinom; normale Zellen: WI38 - humane embryonale Fibroblasten; NIH3T3 - mausartige Fibroblasten; IEC6 - mausartige Enterozyten.

Another data set concerns BxPC3 - Pankreaskrebs. Nature of the data set: MTT assay / EZ4U test, 4 days. Type of data set: cell-based. The settings on record: Homo sapiens, BXPC-3; 200 - 12.5 µg/ml, 4 Tage; read-out: IC50 BxPC3. Here is the method:
as §2

The subject of a further data set is CRO2B - karzinoid. The experiment in a line: MTT assay / EZ4U test, 4 days. Type of data set: cell-based. Particulars: 200 - 12.5 µg/ml, 4 Tage; read-out: IC50 CR02B. Here is the method: as §2
Another data set concerns Colo 205 - Kolonkarzinom. The experiment in a line: MTT assay / EZ4U test, 4 days. It is filed as cell-based. The settings on record: Homo sapiens, COLO 205; 200 - 12.5 µg/ml, 4 Tage; read-out: IC50 Colo205. Here is the method: as §2
For another data set, the system named is HT29 - Kolonkarzinom. The experiment in a line: MTT assay / EZ4U test, 4 days. Type of data set: cell-based. Particulars: Homo sapiens, HT-29; 200 - 12.5 µg/ml, 4 Tage; read-out: IC50 HT29. Here is the method:
as §2

Data set [3] concerns IEC6 - mausartige Enterozyten. The experiment in a line: MTT assay / EZ4U test, 4 days. It is filed as cell-based. Particulars: Rattus norvegicus, IEC-6; 200 - 12.5 µg/ml, 4 Tage; read-out: IC50 IEC6. Here is the method: as §2
The next data set deals with MIAPaCa2 - Pankreaskrebs. The experiment in a line: MTT assay / EZ4U test, 4 days. Particulars: Homo sapiens, MIA PaCa-2; 200 - 12.5 µg/ml, 4 Tage; read-out: IC50 MlAPaCa2. Type of data set: cell-based. Here is the method: as §2
In data set [4] the test system is NIH3T3 - mausartige Fibroblasten. The experiment in a line: MTT assay / EZ4U test, 4 days. Type of data set: cell-based. The settings on record: Mus musculus, NIH3T3; 200 - 12.5 µg/ml, 4 Tage; read-out: IC50 NIH3T3. Here is the method:
as §2

Data set [5] has as its system WI38 - humane embryonale Fibroblasten. The experiment in a line: MTT assay / EZ4U test, 4 days. Type of data set: cell-based. The settings on record: Homo sapiens, WI-38; 200 - 12.5 µg/ml, 4 Tage; read-out: IC50 WI38. Here is the method: as §2
Another data set concerns Krebszellen. Nature of the data set: Mean IC50 over all cancer cell lines. It is filed as cell-based. The settings on record: mean over cancer cell lines; read-out: IC50 Krebszellen (Durchschnitt ± SD). Here is the method:
as §2
(§3) Mittelwerte-IC50 für alle Krebs- oder normalen Zelllinien: […]

The next data set relates to Normale Zellen. Nature of the data set: Mean IC50 over all normal cell lines. It is filed as cell-based. Particulars: mean over normal cell lines; read-out: IC50 Normale Zellen (Durchschnitt ± SD). Here is the method:
as §2, §3

The subject of a further data set is Colo205 Kolonkarzinom. The experiment in a line: subG1 apoptotic fraction, propidium iodide, flow cytometry. The settings on record: 50 µg/ml, 4 Tage. It is filed as cell-based. Here is the method:
(§4) Die Zellen (IEC6 mausartige Enterozyten; Panc1 Pankreaskrebszellen; Colo205 Kolonkarzinom) wurden mit 50 µg/ml Silanen inkubiert und nach 4-tägiger Aussetzung auf DNA eingefärbt (Propidiumiodid). Die SubG1 Zellteilung wurde mittels Durchflusscytometrie bestimmt.
(A flow cytometer gives signals particle by particle.)

Data set [6] deals with IEC6 mausartige Enterozyten. The data set is described as above. Particulars: 50 µg/ml, 4 Tage. It is filed as cell-based. Here is the method: as §4
Data set [7] relates to Panc1 Pankreaskrebszellen. Described as above. It is filed as cell-based. The settings on record: 50 µg/ml, 4 Tage. Here is the method:
as §4

The test system of another data set is Basalzellkarzinome. Nature of the data set: Effect on basal cell carcinomas.

For the compound `C[C@H](N)C(=O)N[C@@H](C)C(=O)N[C@@H](C)C(=O)N[C@@H](C)C(=O)N[C@@H](C)C(=O)O[Si](OC(=O)[C@H](C)NC(=O)[C@H](C)NC(=O)[C@H](C)NC(=O)[C@H](C)NC(=O)[C@H](C)N)(c1ccccc1)c1ccccc1` [Diphenyl bis(pentaalanyl)silylester], the “Wirkung auf Lymphome” value in the data set on Lymphome is listed as “zeigen eine Wirkung”. Further, in the data set on Hepatitis-Viren, the “Wirkung gegen Hepatitis-Viren” value is listed as “zeigen eine Wirkung”.
Regarding `CCCCCCCCCCCCCCCCCC(=O)O[Si](OC(=O)CCCCCCCCCCCCCCCCC)(c1ccccc1)c1ccccc1` [Si10, Di (octadecanoyloxy) diphenylsilan], the “Bedenkliche Toxizität” value in data set [1] was “-”. Further, the IC50 amounted to 84 µM in data set [1] (suspensions, 48 Stunden bei 37°C); 15 µg/mL (≈ 20 µM) in [2]; 15 µg/mL (≈ 20 µM) in the data set on T47D (Brustkrebs); 60 µg/mL (≈ 80.1 µM) in the data set on colo205 (Kofon-Karzinom); 21.9 µg/mL (≈ 29.2 µM) with A431 Epidermalkarzinom; 20 µg/mL (≈ 26.7 µM) in the data set on BxPC3 - Pankreaskrebs. In addition, the IC50 was found to be 18.5 µg/mL (≈ 24.7 µM) with CRO2B - karzinoid; 30.6 µg/mL (≈ 40.8 µM) with Colo 205 - Kolonkarzinom; 27.5 µg/mL (≈ 36.7 µM) in the data set on HT29 - Kolonkarzinom; 17.2 µg/mL (≈ 23 µM) in [3]; 37 µg/mL (≈ 49.4 µM) with MIAPaCa2 - Pankreaskrebs; 22.2 µg/mL (≈ 29.6 µM) in data set [4]. In addition, the results for the IC50 (in data set [5]; with Krebszellen; with Normale Zellen) were 21.8 µg/mL (≈ 29.1 µM), 21.9 µg/mL (≈ 29.2 µM) and 20.4 µg/mL (≈ 27.2 µM), respectively. Besides, the “zentrale, vegetative und toxische Effekte (Verhaltensänderungen)” value is given as “schwache Ataxie, Hyperaktivität und Piloerektion” in the data set with Maus (1•10^-3 mol/kg); “schwache Ataxie” in the data set with Maus (5•10^-3 mol/kg); “keine Verhaltensänderungen” in the data set on Maus (5•10^-4 mol/kg). Also, in the data set with Colo205 Kolonkarzinom, the “subG1 apoptotische Zellteilung Colo205” value is 43,9 ± 1,41. The “subG1 apoptotische Zellteilung IEC6” value in [6] is 13,4 ± 0,42. For the same compound, the “subG1 apoptotische Zellteilung Panc1” value in data set [7] is given as 60,7 ± 0,2. Also, the “Wirkung auf Basalzellkarzinome” value with Basalzellkarzinome is “zeigen eine Wirkung”.
On to `C[C@H](N)C(=O)N[C@@H](C)C(=O)N[C@@H](C)C(=O)N[C@@H](C)C(=O)O[Si](OC(=O)[C@H](C)NC(=O)[C@H](C)NC(=O)[C@H](C)NC(=O)[C@H](C)N)(c1ccccc1)c1ccccc1` [Diphenyl bis(tetraalanyl)silylester], for which the “Wirkung auf Lymphome” value in the data set on Lymphome was “zeigen eine Wirkung”. The “Wirkung gegen Hepatitis-Viren” value in the data set on Hepatitis-Viren is “zeigen eine Wirkung”.
